Experiments:
Format in all cases: biochemical
recombinant hMAO-B = recombinant hMAO-B (Homo sapiens (Human), UniProt P27338); assay: MAO-B activity assay (MAO-Glo assay kit); settings: 4 μM substrate, 30 mins pre-incubation
Method: (§1) The biological activities of the compounds of the present application can be assessed with methods and assays known in the art. For example, the potency of the compounds of the present application can be evaluated with an SSAO Activity Assay. Briefly, compounds of the present application can be applied to recombinant hSSAO, hMAO-A, and hMAO-B isoforms and the amine oxidase activity of the enzymes are measured after the addition and subsequent oxidation of the luminogenic substrate (e.g., with the MAO-Glo assay kit from Promega). The IC50 can be calculated, for example, by fitting the dose response curve using a 4-parameter non-linear regression routine.
(§2) Amine oxidase activity of recombinant hSSAO, hMAO-A, and hMAO-B isoforms are measured using the MAO-Glo assay kit (Promega, V1402). Ten nL test compounds (with DMSO as vehicle, 0.1% v/v for hSSAO, hMAO-A and hMAO-B) were added into assay plates by Echo, and pre-incubated with 5 μL of enzyme for 30 mins at room temperature before the addition of 5 μL of luminogenic substrate. The substrate concentration is 40 μM for human recombinant SSAO, 40 μM for human recombinant MAO-A, and 4 μM for human recombinant MAO-B. The hSSAO and hMAO-A assays were conducted in the MAO-A reaction buffer in the kit, and the MAO-B assay was conducted in the MAO-B reaction buffer. Oxidation of the substrate was conducted for 1 hr, before the addition of detecting reagent according the manufacture's protocol. The IC50 value of the tested compounds was calculated by fitting the dose response curve using a 4-parameter non-linear regression routine.

recombinant hMAO-A = recombinant hMAO-A (Homo sapiens (Human), UniProt P21397); assay: MAO-A activity assay (MAO-Glo assay kit); settings: 40 μM substrate, 30 mins pre-incubation
Sequence of recombinant hMAO-A (P21397 whole entry): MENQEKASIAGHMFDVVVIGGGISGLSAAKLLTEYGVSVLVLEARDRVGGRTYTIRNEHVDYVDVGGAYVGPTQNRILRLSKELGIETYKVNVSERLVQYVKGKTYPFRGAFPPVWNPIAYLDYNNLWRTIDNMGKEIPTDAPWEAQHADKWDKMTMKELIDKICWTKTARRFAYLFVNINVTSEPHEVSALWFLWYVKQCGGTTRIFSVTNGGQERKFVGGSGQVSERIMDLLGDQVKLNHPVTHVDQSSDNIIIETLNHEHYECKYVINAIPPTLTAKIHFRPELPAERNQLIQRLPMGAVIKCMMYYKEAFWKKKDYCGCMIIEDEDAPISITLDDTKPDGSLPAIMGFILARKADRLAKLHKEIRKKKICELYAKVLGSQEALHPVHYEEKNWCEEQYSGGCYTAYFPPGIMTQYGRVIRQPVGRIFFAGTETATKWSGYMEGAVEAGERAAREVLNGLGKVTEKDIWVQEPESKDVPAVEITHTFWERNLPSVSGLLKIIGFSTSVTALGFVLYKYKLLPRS
Method: as §1, §2

recombinant hSSAO = recombinant hSSAO (Homo sapiens (Human), UniProt Q16853); assay: SSAO Activity Assay (MAO-Glo assay kit); settings: 40 μM substrate, 30 mins pre-incubation
Sequence of recombinant hSSAO (Q16853 whole entry): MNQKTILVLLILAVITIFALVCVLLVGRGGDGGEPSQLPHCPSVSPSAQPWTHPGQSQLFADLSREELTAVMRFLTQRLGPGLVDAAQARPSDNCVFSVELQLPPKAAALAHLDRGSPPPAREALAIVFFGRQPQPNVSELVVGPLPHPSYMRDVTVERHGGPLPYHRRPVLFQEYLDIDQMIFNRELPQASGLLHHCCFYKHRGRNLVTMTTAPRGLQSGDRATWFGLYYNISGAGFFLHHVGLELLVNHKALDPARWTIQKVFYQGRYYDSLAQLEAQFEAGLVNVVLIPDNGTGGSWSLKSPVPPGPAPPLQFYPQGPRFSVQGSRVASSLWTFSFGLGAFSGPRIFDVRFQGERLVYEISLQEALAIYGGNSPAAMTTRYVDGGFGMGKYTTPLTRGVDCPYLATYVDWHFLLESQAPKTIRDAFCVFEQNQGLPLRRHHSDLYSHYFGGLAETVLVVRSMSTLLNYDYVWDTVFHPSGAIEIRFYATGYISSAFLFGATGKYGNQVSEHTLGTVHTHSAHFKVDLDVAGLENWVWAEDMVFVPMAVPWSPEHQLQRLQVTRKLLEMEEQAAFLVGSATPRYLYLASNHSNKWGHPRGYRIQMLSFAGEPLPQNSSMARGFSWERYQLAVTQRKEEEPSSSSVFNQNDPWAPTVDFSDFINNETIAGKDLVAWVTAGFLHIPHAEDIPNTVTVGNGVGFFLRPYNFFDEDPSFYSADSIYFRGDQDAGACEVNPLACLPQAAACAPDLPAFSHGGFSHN
Method: as §1, §2

Sequence of recombinant hMAO-B (P27338 whole entry, canonical isoform): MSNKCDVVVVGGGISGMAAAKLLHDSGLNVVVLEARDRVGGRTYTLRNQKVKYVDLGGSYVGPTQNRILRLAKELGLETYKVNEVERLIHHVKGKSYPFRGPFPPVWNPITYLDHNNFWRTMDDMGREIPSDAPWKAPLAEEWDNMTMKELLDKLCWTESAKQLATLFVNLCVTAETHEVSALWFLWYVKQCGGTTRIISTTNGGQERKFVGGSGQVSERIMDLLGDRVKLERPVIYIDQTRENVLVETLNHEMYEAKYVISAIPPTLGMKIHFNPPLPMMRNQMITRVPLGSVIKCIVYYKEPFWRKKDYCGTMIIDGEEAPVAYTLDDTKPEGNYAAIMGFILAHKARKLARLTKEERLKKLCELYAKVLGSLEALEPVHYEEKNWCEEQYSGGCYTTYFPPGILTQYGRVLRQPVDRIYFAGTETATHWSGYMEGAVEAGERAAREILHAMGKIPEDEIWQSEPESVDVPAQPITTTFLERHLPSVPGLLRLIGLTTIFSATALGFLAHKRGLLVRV

IC50 (recombinant hMAO-B) [µM] | IC50 (recombinant hMAO-A) [µM] | IC50 (recombinant hSSAO) [µM] | Compound
> 30 | > 30 | 0.02 to 0.1 | NC/C(=C\F)COc1ccc(S(=O)(=O)CC2CCN(C(=O)C3(C(F)(F)F)CC3)CC2)cc1 [Compound 49, (E)-(4-(((4-((2-(aminomethyl)-3-fluoroallyl)oxy)phenyl)sulfonyl)methyl)piperidin-1-yl)(1-(trifluoromethyl)cyclopropyl) methanone]
> 30 | > 30 | 0.02 to 0.1 | CC(C)(C)NC(=O)C12CCC(CS(=O)(=O)c3ccc(OC/C(=C\F)CN)cc3)(CC1)CC2 [Compound 141, (Z)-4-(((4-((2-(aminomethyl)-3-fluoroallyl)oxy)phenyl)sulfonyl)methyl)-N-(tert-butyl)bicyclo[2.2.2]octane-1-carboxamide]
> 30 | > 30 | 0.02 to 0.1 | NC/C(=C\F)COc1ccc(S(=O)(=O)CC2CCN(C(=O)CC3CC3)CC2)cc1 [Compound 48, (E)-1-(4-(((4-((2-(aminomethyl)-3-fluoroallyl)oxy)phenyl)sulfonyl)methyl)piperidin-1-yl)-2-cyclopropylethan-1-one]
> 30 | > 30 | 0.02 to 0.1 | NC/C(=C\F)COc1ccc(S(=O)(=O)CC2(CN3CCOCC3)CC2)cc1 [Compound 116, (E)-3-fluoro-2-((4-(((1-(morpholinomethyl)cyclopropyl)methyl)sulfonyl)phenoxy)methyl) prop-2-en-1-amine]
10 to 30 | > 30 | 0.02 to 0.1 | NC/C(=C\F)COc1ccc(S(=O)(=O)CN2CCCCC2=O)cc1 [Compound 129, (E)-1-(((4-((2-(aminomethyl)-3-fluoroallyl)oxy)phenyl)sulfonyl)methyl)piperidin-2-one]
> 30 | > 30 | < 0.02 | CC1(NC(=O)C23CCC(CS(=O)(=O)c4ccc(OC/C(=C/F)CN)cc4)(CC2)CC3)CC1 [Compound 67, (E)-4-(((4-((2-(aminomethyl)-3-fluoroallyl)oxy)phenyl)sulfonyl)methyl)-N-(1-methylcyclopropyl)bicyclo[2.2.2] octane-1-carboxamide]
> 30 | > 30 | 0.02 to 0.1 | CC(C)(C)CC(=O)N1CCC(CS(=O)(=O)c2ccc(OC/C(=C/F)CN)cc2)CC1 [Compound 42, (E)-1-(4-(((4-((2-(aminomethyl)-3-fluoroallyl)oxy)phenyl)sulfonyl)methyl)piperidin-1-yl)-3,3-dimethylbutan-1-one]
< 10 | > 30 | < 0.02 | NC/C(=C\F)COc1ccc(S(=O)(=O)CCN2CCCCC2=O)cc1 [Compound 107, (E)-1-(2-((4-((2-(aminomethyl)-3-fluoroallyl)oxy)phenyl)sulfonyl)ethyl) piperidin-2-one]
> 30 | > 30 | 0.02 to 0.1 | CN(C(=O)C12CCC(CS(=O)(=O)c3ccc(OC/C(=C/F)CN)cc3)(CC1)CC2)C1CC1 [Compound 73, (E)-4-(((4-((2-(aminomethyl)-3-fluoroallyl)oxy)phenyl)sulfonyl)methyl)-N-cyclopropyl-N-methylbicyclo[2.2.2]octane-1-carboxamide]
> 30 | > 30 | 0.02 to 0.1 | CC1(CS(=O)(=O)c2ccc(OC/C(=C/F)CN)cc2)CCN(C(=O)C(C)(C)C)CC1 [Compound 54, (E)-1-(4-(((4-((2-(aminomethyl)-3-fluoroallyl)oxy)phenyl)sulfonyl)methyl)-4-methylpiperidin-1-yl)-2,2-dimethylpropan-1-one]
> 30 | > 30 | 0.02 to 0.1 | CC1(C)CCC(=O)N1CS(=O)(=O)c1ccc(OC/C(=C/F)CN)cc1Cl [Compound 124, (E)-1-(((4-((2-(aminomethyl)-3-fluoroallyl)oxy)-2-chlorophenyl)sulfonyl)methyl)-5,5-dimethylpyrrolidin-2-one]
10 to 30 | > 30 | < 0.02 | CC(C)(C)C(=O)NC12CCC(CS(=O)(=O)c3ccc(OC/C(=C/F)CN)cc3)(CC1)CC2 [Compound 90, (E)-N-(4-(((4-((2-(aminomethyl)-3-fluoroallyl)oxy)phenyl)sulfonyl)methyl)bicyclo[2.2.2]octan-1-yl)pivalamide]
> 30 | > 30 | 0.02 to 0.1 | NC/C(=C\F)COc1ccc(S(=O)(=O)CC2CCN(C(=O)C3CCC3)CC2)cc1 [Compound 50, (E)-(4-(((4-((2-(aminomethyl)-3-fluoroallyl)oxy)phenyl)sulfonyl)methyl)piperidin-1-yl)(cyclobutyl)methanone]
> 30 | > 30 | < 0.02 | NC/C(=C\F)COc1ccc(S(=O)(=O)CC23CCC(C(=O)N4CC(F)(F)C4)(CC2)CC3)cc1 [Compound 72]
10 to 30 | 10 to 30 | 0.1 to 0.5 | NC/C(=C\F)COc1ccc(S(=O)(=O)CC2CCN(C(=O)C34CC5CC(CC(C5)C3)C4)CC2)cc1 [Compound 43, (E)-adamantan-1-yl(4-(((4-((2-(aminomethyl)-3-fluoroallyl)oxy)phenyl)sulfonyl)methyl)piperidin-1-yl)methanone]
10 to 30 | > 30 | < 0.02 | CC(C)C(=O)NC12CCC(CS(=O)(=O)c3ccc(OC/C(=C/F)CN)cc3)(CC1)CC2 [Compound 80, (E)-N-(4-(((4-((2-(aminomethyl)-3-fluoroallyl)oxy)phenyl)sulfonyl)methyl)bicyclo[2.2.2]octan-1-yl)isobutyramide]
< 10 | > 30 | 0.02 to 0.1 | CC(C)C(=O)N(C)CS(=O)(=O)c1ccc(OC/C(=C/F)CN)cc1 [Compound 122, (E)-N-(((4-((2-(aminomethyl)-3-fluoroallyl)oxy)phenyl)sulfonyl)methyl)-N-methylisobutyramide]
> 30 | > 30 | < 0.02 | CC(C)(C)C(=O)NC12CCC(CS(=O)(=O)c3ccc(OC/C(=C\F)CN)cc3)(CC1)CC2 [Compound 142, (Z)-N-(4-(((4-((2-(aminomethyl)-3-fluoroallyl)oxy)phenyl)sulfonyl)methyl)bicyclo[2.2.2]octan-1-yl)pivalamide]
10 to 30 | > 30 | < 0.02 | NC/C(=C\F)COc1ccc(S(=O)(=O)CC23CCC(C(=O)NC4CC(F)(F)C4)(CC2)CC3)cc1 [Compound 69, (E)-4-(((4-((2-(aminomethyl)-3-fluoroallyl)oxy)phenyl)sulfonyl)methyl)-N-(3,3-difluorocyclobutyl)bicyclo[2.2.2] octane-1-carboxamide]
> 30 | > 30 | < 0.02 | CC(C)C(=O)N1CCC(CS(=O)(=O)c2ccc(OC/C(=C/F)CN)cc2)CC1 [compound 37, (E)-1-(4-(((4-((2-(aminomethyl)-3-fluoroallyl)oxy)phenyl)sulfonyl)methyl)piperidin-1-yl)-2-methylpropan-1-one]
10 to 30 | > 30 | 0.02 to 0.1 | CC1(CS(=O)(=O)c2ccc(OC/C(=C/F)CN)cc2)CCN(C(=O)C2(C(F)(F)F)CC2)CC1 [Compound 55, (E)-(4-(((4-((2-(aminomethyl)-3-fluoroallyl)oxy)phenyl)sulfonyl)methyl)-4-methylpiperidin-1-yl)(1-(trifluoromethyl)cyclopropyl) methanone]

From US11472769B2, “SSAO inhibitors and use thereof” (Eccogene (Shanghai) Co., Ltd., priority 2019, dated 2022)
